Assay results from PMC12467487, “An In Vitro Study of Protein S-Glutathionylation by Members of the CLIC Protein Family” (Biomolecules, 2025).

Columns and labels:
Test in all cases: tryptophan fluorescence quenching, glutathionylation of SQLWCLSN, AUC
Type in all cases: biochemical
rCLIC4 = target: T1, rCLIC4 (Homo sapiens, UniProt Q9Y696); details: 5 mM GSSG, 100 uM peptide, McIlvaine's buffer pH 7, 0.1 uM enzyme; 1 h pre-incubation with 10 uM IAA-94
T1 construct: gene CLIC4; recombinant, soluble form; pET28a(+), ClearColi BL21(DE3); His-tag removed by thrombin; SEC

rCLIC1 = target: T2, rCLIC1 (Homo sapiens, UniProt O00299); details: 5 mM GSSG, 100 uM peptide, McIlvaine's buffer pH 7, 0.1 uM enzyme; 1 h pre-incubation with 10 uM IAA-94
T2 construct: gene CLIC1; recombinant, soluble form; pET28a(+), ClearColi BL21(DE3); His-tag removed by thrombin; SEC

rCLIC3 = target: T3, rCLIC3 (Homo sapiens, UniProt O95833); details: 5 mM GSSG, 100 uM peptide, McIlvaine's buffer pH 8, 0.1 uM enzyme; 1 h pre-incubation with 10 uM IAA-94
T3 construct: gene CLIC3; recombinant, soluble form; pET28a(+), E. coli BL21(DE3); His-tag removed by thrombin; SEC; endotoxin removed
T3 sequence (O95833 whole entry): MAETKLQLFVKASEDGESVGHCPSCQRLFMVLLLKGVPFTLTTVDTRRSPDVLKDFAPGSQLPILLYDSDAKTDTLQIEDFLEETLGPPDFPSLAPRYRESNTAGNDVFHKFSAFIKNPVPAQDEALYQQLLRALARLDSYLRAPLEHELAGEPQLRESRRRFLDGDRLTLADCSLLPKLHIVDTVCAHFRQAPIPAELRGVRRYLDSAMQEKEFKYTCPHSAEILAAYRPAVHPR

T1 sequence (Q9Y696 whole entry): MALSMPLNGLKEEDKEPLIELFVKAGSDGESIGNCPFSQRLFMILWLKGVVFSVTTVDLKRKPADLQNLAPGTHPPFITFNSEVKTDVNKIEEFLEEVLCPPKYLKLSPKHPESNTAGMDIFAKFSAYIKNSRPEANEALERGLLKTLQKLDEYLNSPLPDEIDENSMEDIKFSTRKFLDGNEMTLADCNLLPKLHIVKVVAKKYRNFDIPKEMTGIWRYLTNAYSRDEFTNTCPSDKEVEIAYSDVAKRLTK

fold decrease in glutathionylation activity at 10 uM (rCLIC4): 0.4 fold
fold decrease in glutathionylation activity at 10 uM (rCLIC1): 0.7 fold
fold reduction of glutathionylation activity at 10 uM (rCLIC3): 0.2 fold
SMILES: CC1(C2CCCC2)Cc2cc(OCC(=O)O)c(Cl)c(Cl)c2C1=O (stereo not drawn) [IAA-94]
